From patent US11180657B2, “Polysulfonated fluorescence dyes” (ATTO-TEC GmbH, priority 2017, dated 2021)
Marks after values point to notes of the source that are not given here.

Tests used:
Format in all cases: physicochemical
[1] = Fluorescence maximum of the dye; conditions: solvent PBS pH 7.4
Excerpt: (§1) Examples of the compounds according to the invention are listed in Tables 2-6, where the structures as well as the absorption and fluorescence maxima are indicated. The spectra of selected compounds are shown FIGS. 5-18.

[2] = Absorption maximum of the dye
Excerpt: as §1

[3] = target: T1, streptavidin (Streptomyces avidinii, UniProt P22629); experiment: Fluorescence quantum yield of the dye after coupling to streptavidin, relative to the uncoupled dye; conditions: streptavidin conjugate
T1 construct: purchased IBA
T1 sequence (P22629 38-163 limits assumed): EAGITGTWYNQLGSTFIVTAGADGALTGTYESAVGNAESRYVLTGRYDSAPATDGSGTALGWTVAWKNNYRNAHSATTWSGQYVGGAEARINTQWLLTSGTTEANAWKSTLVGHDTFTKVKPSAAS
Excerpt: The average number of dye molecules per biomolecule is expressed by the “degree of labeling” (DOL). […] Since the dye also absorbs in UV, the (total) absorption measured there must still be corrected with the absorption of the dye at this wavelength in order to obtain the actual biomolecule absorption. For this purpose, with commercial dyes, so-called CF values (correction factor values) are given, which describe the ratio of absorptions of the dye at the longwave maximum and at 260 nm or 280 nm.
From the thus obtained (individual) absorptions of dye and biomolecule in the conjugate, taking into consideration the two extinction coefficients, the quotient is formed, which directly indicates the molecular concentration ratio and thus the mean number of dye molecules per biomolecule (“degree of labeling,” DOL).
The compounds listed in Table 1 belong to the class of rhodamines with the same chromophore system. In an aqueous solution at room temperature they all have a comparably high fluorescence quantum yield of about 90%. […] Thus with established marking procedures, a much better detection reliability is achieved.
2 mg of streptavidin (IBA, content approx. 75%) are dissolved under cautious swirling in a glass vial with 1 ml of PBS buffer (pH 7.4) and 50 μl of a 0.2 M sodium hydrogen carbonate solution, which is set to a pH of 9 with sodium hydroxide. The clear solution has a pH-value of 8.3.
40.5 μl of a solution of 170 μg of compound 7 in 50 μl of dry DMSO are added; this corresponds to a dye-streptavidin ratio of 4:1.
The reaction solution is kept for two hours at room temperature and then kept overnight in the refrigerator at 4° C.
Purification is performed in the usual manner over superfine Sephadex G25 (column length 40 cm, diameter 2.5 cm) with PBS buffer as the eluent. The first colored zone contains the streptavidin conjugate.
The DOL can be calculated from the absorption spectrum of the conjugate fraction by the known procedure.

[4] = Lactone or pseudobase formation in aqueous weakly alkaline solution; conditions: aqueous weakly alkaline solutions; reversible
Excerpt: Normally such lactones are adequately stabilized only in aprotic solvents such as acetone or chloroform. In protic solvents the carboxyl group is deprotonated and a slightly more short-wave absorbing and fluorescent zwitterion is formed. In the exemplary compounds, however, colorless compounds are formed due to the strong electron attraction of the indicated substituents, due to internal ester formation and the associated interruption of the conjugated system. If the carboxyl group is not free but is present as an ester or tertiary amide, so-called pseudobases are formed, through nucleophilic attack (hydroxide ions etc.) at the central carbon atom, which is stronger positivized by the electron-attracting substituents, which pseudobases are likewise colorless due to the interruption of the conjugated system. Both reactions are reversible; by changing the pH value, the dielectric constant (“polarity”) and/or the capability of hydrogen bridge bonding (“proticity”), the dye can be restored. Therefore such compounds can in principle be used as probes for the properties of their direct environment: Depending on the milieu, the molecules are present in colorless or colored form. Associated therewith is also a sort of fluorogenicity, because the longwave fluorescence appears only in the dye form.

SMILES	λfl [1]	λabs ([2]; solvent water/acetonitrile 1:1)	Fluorescence quantum yield of the dye following coupling to streptavidin in comparison with the uncoupled dye ([3]; DOL 2.5, PBS-buffer 25° C.) [%]	Fluorescence quantum yield of the dye following coupling to streptavidin in comparison with the uncoupled dye ([3]; DOL 5.5, PBS-buffer 25° C.) [%]	formation of colorless lactone or pseudobase [4]	Fluorescence quantum yield of the dye following coupling to streptavidin in comparison with the uncoupled dye ([3]; DOL 3.0, PBS-buffer 25° C.) [%]	Fluorescence quantum yield of the dye following coupling to streptavidin in comparison with the uncoupled dye ([3]; DOL 5.6, PBS-buffer 25° C.) [%]	λabs ([2]; solvent PBS pH 7.4)	Fluorescence quantum yield of the dye following coupling to streptavidin in comparison with the uncoupled dye ([3]; DOL 2.8, PBS-buffer 25° C.) [%]	Fluorescence quantum yield of the dye following coupling to streptavidin in comparison with the uncoupled dye ([3]; DOL 6.7, PBS-buffer 25° C.) [%]	Fluorescence quantum yield of the dye following coupling to streptavidin in comparison with the uncoupled dye ([3]; DOL 7.0, PBS-buffer 25° C.) [%]
CN(CCCC(=O)O)C(=O)c1ccccc1-c1c2cc(S(=O)(=O)O)/c(=N/Cc3ccc(S(=O)(=O)O)cc3S(=O)(=O)O)cc-2oc2cc(NCc3ccc(S(=O)(=O)O)cc3S(=O)(=O)O)c(S(=O)(=O)O)cc12 [Compound 6]	559^b nm	534^c nm	42	37	easily form a lactone or pseudobase	–	–	–	–	–	–
CN(CCCC(=O)NCCCCCC(=O)O)C(=O)c1ccccc1-c1c2cc(S(=O)(=O)O)/c(=N/Cc3ccc(S(=O)(=O)O)cc3S(=O)(=O)O)cc-2oc2cc(NCc3ccc(S(=O)(=O)O)cc3S(=O)(=O)O)c(S(=O)(=O)O)cc12 [Compound 12]	555^b nm	536^c nm	–	–	easily form a lactone or pseudobase	27	–	–	–	–	–
CN(CCCC(=O)O)C(=O)c1ccccc1-c1c2cc(S(=O)(=O)O)/c(=N/CCc3ccc(S(=O)(=O)O)cc3)cc-2oc2cc(NCCc3ccc(S(=O)(=O)O)cc3)c(S(=O)(=O)O)cc12 [Compound 19]	560^b nm	537^c nm	–	–	easily form a lactone or pseudobase	–	10	–	–	–	–
CN(CCCC(=O)O)C(=O)c1ccccc1-c1c2cc(S(=O)(=O)O)/c(=N/CCc3ccc(S(=O)(=O)O)cc3S(=O)(=O)O)cc-2oc2cc(NCCc3ccc(S(=O)(=O)O)cc3S(=O)(=O)O)c(S(=O)(=O)O)cc12 [Compound 25]	560^b nm	–	–	–	easily form a lactone or pseudobase	–	–	539^b nm	45	35	–
CN(CCCC(=O)O)C(=O)c1ccccc1-c1c2cc/c(=N/CCc3ccc(S(=O)(=O)O)cc3)c(S(=O)(=O)O)c-2oc2c(S(=O)(=O)O)c(NCCc3ccc(S(=O)(=O)O)cc3)ccc12 [Compound 26]	558^b nm	538^c nm	–	–	–	–	–	–	–	–	8
